Legend:
[1] = system: chicken embryo chorioallantoic membrane; experiment: Chicken embryo chorioallantoic membrane (CAM) angiogenesis assay; format: in vivo; details: for Inhibition of Neovascularization Grade/Range / Mean % Inhibition of Neovascularization / Inhibition of Neovascularization Grade/Mean ± SD: 48 hrs; for Inhibition of Neovascularization Grade/Mean ± SD: grade scale 0-4
Procedure: Briefly, eight-day chicken embryos were removed from eggs and placed into sterile petri dishes. Individual filter paper disks were saturated with 7.5 μl of different stock solutions of L-Glu-L-Trp dissolved in sterile 0.14M NaCl to achieve final test concentrations of 0.001, 0.01, 0.1, 1.0, 10, 100, 500, and 1000 μg per disk. Disks were air dried and then inverted onto the surface of the respective embryos.
In this experiment saline served as a negative control and 10 μg/disk of heparin served as a positive control. The pentapeptide Thr-Ala-Glu-Glu-Lys (TAEEK) (SEQ ID NO 7) served as a specificity control, (i.e., for possible nonspecific effects of peptides on neovascularization at the concentrations tested). Nine-12 test disks and a corresponding number of different embryos were employed for each test concentration along with […] (each) positive and negative control embryos.

Lewis lung carcinoma = experiment: Inhibition of Lewis lung tumor neovascularization; format: in vivo, C57BL/6 mice
Procedure: Lewis lung carcinoma cells (5×10^7) when injected (0.1 ml) intradermally into both flanks of C57BL/6 mice (day 0) produce a visible highly vascularized tumor nodules within 7 days. By excising the tumor the degree of tumor vascularity may be determined microscopically by counting the number of large vessels radiating from the tumor mass.

Sarcoma 180 tumors = experiment: Sarcoma 180 tumor size after prophylactic treatment; format: in vivo, Swiss-Webster mice
Procedure: Neovascularization is required for tumor growth. Anti-tumor activity of L-Glu-L-Trp was evaluated at an independent contract research organization. Sarcoma 180 tumors (ATCC CCL-8 CCRF S-180 II) were induced by injecting 2×10^6 cells/0.1 ml im into each rear flank of Swiss-Webster mice. Groups consisted of 10 animals (20 tumors). L-Glu-L-Trp was administered in a single 0.1 ml dose of either 10 μg/kg, 75 μg/kg, 250 μg/kg or 1000 μg/kg. Tumor size was evaluated by surgically removing and weighing the affected limbs, and comparing the weight with the weight of normal control (non-tumor) limbs. The first prophylactic drug regimen (PDR-1) consisted of 5 consecutive daily ip injections commencing on day −5 and ending of day −1. The second prophylactic drug regimen (PDR-2) consisted of 5 consecutive daily im injections to the left rear flank (tumor site) beginning on day −5 and ending on day −1. Sarcoma 180 cells were injected im on day 0. Saline 0.1 ml served as the negative control.

[2] = PDR-1 (ip, day −5 to −1), 10 μg/kg
[3] = PDR-1 (ip, day −5 to −1), 75 μg/kg
[4] = PDR-1 (ip, day −5 to −1), 250 μg/kg
[5] = PDR-1 (ip, day −5 to −1), 1000 μg/kg
[6] = PDR-2 (im left flank), 10 μg/kg
[7] = PDR-2 (im left flank), 75 μg/kg
[8] = PDR-2 (im left flank), 250 μg/kg
[9] = PDR-2 (im left flank), 1000 μg/kg
[10] = PDR-2 (im left rear flank, day −5 to −1), 10 μg/kg
[11] = PDR-2 (im left rear flank, day −5 to −1), 75 μg/kg
[12] = PDR-2 (im left rear flank, day −5 to −1), 250 μg/kg
[13] = PDR-2 (im left rear flank, day −5 to −1), 1000 μg/kg

## heparin
[1]; 10 μg/disk
  Inhibition of Neovascularization Grade/Range: 1-4
  Mean % Inhibition of Neovascularization: 81 ± 18%
  Inhibition of Neovascularization Grade/Mean ± SD: 3.26 ± 0.73

## Thr-Ala-Glu-Glu-Lys (TAEEK) [pentapeptide specificity control]
[1]; 0.001 μg/disk
  Inhibition of Neovascularization Grade/Range: 0-0
  Mean % Inhibition of Neovascularization: 0%
  Inhibition of Neovascularization Grade/Mean ± SD: 0 ± 0
[1]; 0.01 μg/disk
  Inhibition of Neovascularization Grade/Range: 0-0
  Mean % Inhibition of Neovascularization: 0%
  Inhibition of Neovascularization Grade/Mean ± SD: 0 ± 0
[1]; 0.1 μg/disk
  Inhibition of Neovascularization Grade/Range: 0-0
  Mean % Inhibition of Neovascularization: 0%
  Inhibition of Neovascularization Grade/Mean ± SD: 0 ± 0
[1]; 1 μg/disk
  Inhibition of Neovascularization Grade/Range: 0-1
  Mean % Inhibition of Neovascularization: 8 ± 10%
  Inhibition of Neovascularization Grade/Mean ± SD: 0.33 ± 0.49
[1]; 10 μg/disk
  Inhibition of Neovascularization Grade/Range: 0-1
  Mean % Inhibition of Neovascularization: 5 ± 10%
  Inhibition of Neovascularization Grade/Mean ± SD: 0.18 ± 0.40
[1]; 100 μg/disk
  Inhibition of Neovascularization Grade/Range: 0-2
  Mean % Inhibition of Neovascularization: 18 ± 23%
  Inhibition of Neovascularization Grade/Mean ± SD: 0.67 ± 0.87
[1]; 500 μg/disk
  Inhibition of Neovascularization Grade/Range: 0-1
  Mean % Inhibition of Neovascularization: 9 ± 13%
  Inhibition of Neovascularization Grade/Mean ± SD: 0.3 ± 0.48
[1]; 1000 μg/disk
  Inhibition of Neovascularization Grade/Range: 0-2
  Mean % Inhibition of Neovascularization: 18 ± 20%
  Inhibition of Neovascularization Grade/Mean ± SD: 0.7 ± 0.82

## O=P1(N(CCCl)CCCl)NCCCO1 (stereo not shown) [Cytoxan, reference compound]
Lewis lung carcinoma; Dose 200 (column head μg/kg/dose), administered only on day 2
  No. Vessels (Mean ± S.D.): 9 ± 5

## L-Glu-L-Trp
[1]; 0.001 μg/disk
  Inhibition of Neovascularization Grade/Range: 0-2
  Mean % Inhibition of Neovascularization: 33 ± 20%
  Inhibition of Neovascularization Grade/Mean ± SD: 1.3 ± 0.82
[1]; 10 ng-1000 μg in saline
  decrease in vascularity in embryos: 30-88%
[1]; 0.01 μg/disk
  Inhibition of Neovascularization Grade/Range: 1-2
  Mean % Inhibition of Neovascularization: 38 ± 13%
  Inhibition of Neovascularization Grade/Mean ± SD: 1.5 ± 0.53
[1]; 0.1 μg/disk
  Inhibition of Neovascularization Grade/Range: 0-3
  Mean % Inhibition of Neovascularization: 48 ± 23%
  Inhibition of Neovascularization Grade/Mean ± SD: 1.9 ± 0.88
[1]; 1 μg/disk
  Inhibition of Neovascularization Grade/Range: 1-4
  Mean % Inhibition of Neovascularization: 58 ± 23%
  Inhibition of Neovascularization Grade/Mean ± SD: 2.33 ± 0.89
[1]; 10 μg/disk
  Inhibition of Neovascularization Grade/Range: 1-4
  Mean % Inhibition of Neovascularization: 78 ± 28%
  Inhibition of Neovascularization Grade/Mean ± SD: 3.09 ± 1.14
[1]; 100 μg/disk
  Inhibition of Neovascularization Grade/Range: 3-4
  Mean % Inhibition of Neovascularization: 85 ± 18%
  Inhibition of Neovascularization Grade/Mean ± SD: 3.44 ± 0.73
[1]; 500 μg/disk
  Inhibition of Neovascularization Grade/Range: 1-4
  Mean % Inhibition of Neovascularization: 60 ± 20%
  Inhibition of Neovascularization Grade/Mean ± SD: 2.4 ± 0.84
[1]; 1000 μg/disk
  Inhibition of Neovascularization Grade/Range: 2-4
  Mean % Inhibition of Neovascularization: 83 ± 20%
  Inhibition of Neovascularization Grade/Mean ± SD: 3.3 ± 0.82
Lewis lung carcinoma; 125 μg/kg/dose im daily for 5 days
  No. Vessels (Mean ± S.D.): 6 ± 3
Lewis lung carcinoma; 250 μg/kg/dose im daily for 5 days
  No. Vessels (Mean ± S.D.): 7 ± 2
Lewis lung carcinoma; 500 μg/kg/dose im daily for 5 days
  No. Vessels (Mean ± S.D.): 9 ± 4
Lewis lung carcinoma; 1000 μg/kg/dose im daily for 5 days
  No. Vessels (Mean ± S.D.): 12 ± 5
Lewis lung carcinoma; 2000 μg/kg/dose im daily for 5 days
  No. Vessels (Mean ± S.D.): 17 ± 7
Sarcoma 180 tumors; PDR-1 (ip), 10 μg/kg
  Mean Tumor Weight Left: 3.0
  Percent of Control Tumor Weight Left: 120%
  Mean Tumor Weight Right: 2.9
  Percent of Control Tumor Weight Right: 126%
Sarcoma 180 tumors; PDR-1 (ip), 75 μg/kg
  Mean Tumor Weight Left: 3.0
  Percent of Control Tumor Weight Left: 120%
  Mean Tumor Weight Right: 3.0
  Percent of Control Tumor Weight Right: 130%
Sarcoma 180 tumors; PDR-1 (ip), 250 μg/kg
  Mean Tumor Weight Left: 2.3
  Percent of Control Tumor Weight Left: 92%
  Mean Tumor Weight Right: 1.9
  Percent of Control Tumor Weight Right: 83%
Sarcoma 180 tumors; PDR-1 (ip), 1000 μg/kg
  Mean Tumor Weight Left: 1.3
  Percent of Control Tumor Weight Left: 52%
  Mean Tumor Weight Right: 1.0
  Percent of Control Tumor Weight Right: 43%
Sarcoma 180 tumors; [2]
  Leg Weight Left: 4.2 ± 0.9 g
  Leg Weight Right: 4.1 ± 0.7 g
Sarcoma 180 tumors; [3]
  Leg Weight Left: 4.2 ± 0.8 g
  Leg Weight Right: 4.2 ± 0.8 g
Sarcoma 180 tumors; [4]
  Leg Weight Left: 3.5 ± 1.0 g
  Leg Weight Right: 3.1 ± 0.6 g
Sarcoma 180 tumors; [5]
  Leg Weight Left: 2.5 ± 0.7 g
  Leg Weight Right: 2.2 ± 0.5 g
Sarcoma 180 tumors; [6]
  Mean Tumor Weight Left: 2.4
  Percent of Control Tumor Weight Left: 96%
  Mean Tumor Weight Right: 2.6
  Percent of Control Tumor Weight Right: 113%
Sarcoma 180 tumors; [7]
  Mean Tumor Weight Left: 2.4
  Percent of Control Tumor Weight Left: 96%
  Mean Tumor Weight Right: 3.3
  Percent of Control Tumor Weight Right: 143%
Sarcoma 180 tumors; [8]
  Mean Tumor Weight Left: 1.8
  Percent of Control Tumor Weight Left: 72%
  Mean Tumor Weight Right: 1.1
  Percent of Control Tumor Weight Right: 48%
Sarcoma 180 tumors; [9]
  Mean Tumor Weight Left: 1.2
  Percent of Control Tumor Weight Left: 48%
  Mean Tumor Weight Right: 1.3
  Percent of Control Tumor Weight Right: 57%
Sarcoma 180 tumors; [10]
  Leg Weight Left: 3.6 ± 0.7 g
  Leg Weight Right: 3.8 ± 0.7 g
Sarcoma 180 tumors; [11]
  Leg Weight Left: 3.6 ± 0.7 g
  Leg Weight Right: 3.5 ± 0.3 g
Sarcoma 180 tumors; [12]
  Leg Weight Left: 3.0 ± 0.1 g
  Leg Weight Right: 2.3 ± 0.5 g
Sarcoma 180 tumors; [13]
  Leg Weight Left: 2.4 ± 0.5 g
  Leg Weight Right: 2.5 ± 0.5 g
